Assay results as given in US6921530B1, “Low dose IL-2 for potentiation of immunity” (Cornell Research Foundation, Inc., priority 1999, dated 2005).

Key:
HIV infection = assay: Daily IL-2 in conjunction with HAART in HIV infection (earlier experience); type: in vivo, human; settings: after 6 months of IL-2 therapy
Description: Daily low-dose IL-2 therapy served to correct the deficiency in CD4+ T cells, while maintaining the high frequency of CD8+ HIV-specific CTL, and increasing the circulating NK cells.

[1] = Tolerability of daily IL-2 doses in earlier studies of the applicant; type: in vivo
Procedure: a) IL-2: The initial dose of IL-2 used in this study is based on our studies in HIV infection. Individuals with HIV were able to tolerate rIL-2 at 1.2×10^6 IU/m^2/day. […] Peak plasma levels are measured at two hours after initial IL-2 injection. Dosage adjustments of IL-2 are made under the following circumstances:
(1) IL-2 Dosage reduction: If a subject experiences WHO grade I systemic toxicity, and is unable to tolerate the daily dose of rIL-2 at 1.2×10^6 IU/m^2/day, the dose is reduced to 0.9×10^6 IU/m^2/day. In the event that toxicity continues, the dose is decreased to 0.75 IU/m^2/day, which is halfway between the previous dose and the dose we have previously determined to be ineffective (0.6 IU/m^2/d).
This dose is midway between the starting dose and the dose found to be toxic in 100% of patients (2.4×10^6 IU /m^2/d). In the event that toxicity occurs, the dose is adjusted to 1.4×10^6 IU 1m^2/day, and if there is still toxicity, the dose will be returned to 1.2×10^6 IU /m^2/day.

HCV = settings: 1-2 MIU s.c. daily; cited from earlier work

Which “Delayed Type Hypersensitivity (DTH) to common environmental antigens” value (HIV infection) does the source give for Interleukin-2 [IL-2] here?
The value was “more than doubled”.

And the “patients in whom the dose was toxic” value ([1]; 2.4×10^6 IU /m^2/d)?
Its value is 100%.

What about the “dose previously determined to be ineffective” value ([1]; in vivo) of the same substance?
Its value is 0.6 IU/m^2/d.

What about the tolerated daily dose ([1]; individuals with HIV) of the same substance?
The tolerated daily dose was 1.2×10^6 IU/m^2/day.

And the “subjects showing a decrease in ALT” value (HCV)?
Its value is 70%.
